{"source": "patent US20080021002A1", "about": "“VITAMIN D COMPOUNDS USED TO STABILIZE KIDNEY TRANSPLANTS” (priority 2000, published 2008)", "key": {"TGFβ-1 mRNA": {"test_system": "TGFβ-1 mRNA", "assay": "Semi-quantitative RT-PCR of renal grafts, TGFβ-1 mRNA", "assay_type": "in vivo, rat", "conditions": "treated recipients vs untreated allogeneic control grafts", "procedure": "(§1) Semi-quantitative Reverse transcription polymerace chain reaction (RT-PCR): Following graft harvest a […] containing both cortex and medulla was snap frozen in liquid nitrogen. Semi-quantitative RT-PCR was performed as described. Little et al. Transplant Int. 12:393-401, 1999. Briefly, samples were homogenized then total RNA extracted with RNAzol B (Tel Test, Inc., Friendswood, Tex.) and reversed transcribed to cDNA according to manufacturer=s instructions (Superscript, Gibco BRL). PCR was performed over the linear range of amplification for both the gene of interest, e.g. TGFβ-1, and the ribosomal protein S26 as a control housekeeping gene. PCR conditions were chosen such that both products were amplified with similar efficiency. The following cycle parameters were employed: denaturing, 94° C. for 60 seconds; annealing, 61° C. for 60 seconds; and extension, 72° C. for 60 seconds. The amount of product was quantified using a phosphoimager (Storm 80) following gel electrophoresis and Vista green detection."}, "[1]": {"assay": "Effect of calcitriol on CsA and FK506 serum levels and dosages in transplant patients", "assay_type": "in vivo, human", "excerpt": "Methodology-retrospective analysis: The University of Wisconsin transplant database was screened to identify any kidney and/or kidney-pancreas transplant recipient who received 1,25-dihydroxyvitamin D3 (calcitriol)peri-post-transplant. Clinical and demographic variables were abstracted from the database. Those patients with adequate follow-up data were included in the analysis (≧1year follow-up data following the initiation of calcitriol). Demographic variables included race, age, and nay history of parathyroidectomy as these patients would likely be receiving calcitriol at time of transplantation. The effect of calcitriol treatment on renal function was analyzed using general linear mixed modeling of the change in slope of renal function prior to and following the start of calcitriol therapy. […] Adverse events and hypercalcemia were noted by identifiers in the database and by serum calcium levels as recorded in the database. Hypercalcemia was defined as a serum calcium >10.5 mg/dl. […] Both of these agents have beneficial effects in prolonging allograft function by altering the ability for activated T cells to produce interleukin-2 (IL-2). However, both of these agents are also associated with drug-related nephrotoxicity that is manifested by characteristic histologic changes in the allograft, e.g. tubulointerstitial fibrosis, and loss of allograft function long-term."}, "[2]": {"test_system": "kidney or kidney-pancreas transplant recipients", "assay": "Retrospective analysis of renal function (serial serum creatinine) in calcitriol-treated transplant patients", "assay_type": "in vivo, human", "excerpt": "Methodology-retrospective analysis: The University of Wisconsin transplant database was screened to identify any kidney and/or kidney-pancreas transplant recipient who received 1,25-dihydroxyvitamin D3 (calcitriol)peri-post-transplant. Clinical and demographic variables were abstracted from the database. Those patients with adequate follow-up data were included in the analysis (≧1year follow-up data following the initiation of calcitriol). Demographic variables included race, age, and nay history of parathyroidectomy as these patients would likely be receiving calcitriol at time of transplantation. The effect of calcitriol treatment on renal function was analyzed using general linear mixed modeling of the change in slope of renal function prior to and following the start of calcitriol therapy. […] Adverse events and hypercalcemia were noted by identifiers in the database and by serum calcium levels as recorded in the database. Hypercalcemia was defined as a serum calcium >10.5 mg/dl. Data assessment—Demographics: Calcitriol-treatment patients were divided into: Group 1: patients who initiated calcitriol therapy<one year following transplantation, Group 2: patients who remained on or initiated calcitriol therapy within two weeks of transplantation, Data assessment—outcomes for Group 1 patients: Renal function was determined by assessing serial serum creatinine values. This serum measure is a standard and accepted measure of renal function. The start of calcitriol therapy was defined as day 0. Time prior to initiation of calcitriol therapy was designated by a negative value. Mean serum creatinine levels appeared to increase in Group 1 patients (indicative of declining renal function) until the time of calcitriol therapy was initiated (Table 3)."}, "MMP 2 mRNA": {"test_system": "MMP 2 mRNA", "assay": "Semi-quantitative RT-PCR of renal grafts, MMP 2 mRNA", "assay_type": "in vivo, rat", "procedure": "FIG. 5 is a set of graphs showing that 1,25-(OH)2D3 Treatment Alters MMP and TIMP Expression . […] S26 was used as the housekeeping gene. […] Fold changes are expressed relative to the allogeneic untreated control.\nas §1"}}}
{"smiles": "C=C1/C(=C\\C=C2/CCC[C@]3(C)[C@@H]([C@H](C)CCCC(C)(C)O)CC[C@@H]23)C[C@@H](O)C[C@@H]1O", "note": "[calcitriol, 1,25-dihydroxyvitamin D3]", "values": [{"measurement": "TGFβ-1 mRNA levels", "setting": "TGFβ-1 mRNA", "value": "no significant difference"}, {"measurement": "Effect on CsA or FK506 dosages or serum drug levels", "setting": "[1]; combined analysis of all Group 1 and Group 2 patients", "value": "no significant effect"}, {"measurement": "Trends in mean CsA levels or variability in CsA levels", "setting": "[1]; seven of the 26 Group 1 patients with serial CsA levels", "value": "No trends"}, {"measurement": "Graft failures (loss of the transplant)", "setting": "[2]; Group 1 (26 patients)", "value": "six"}, {"measurement": "Serum creatinine levels following initiation of therapy", "setting": "[2]; Group 1 patients", "value": "stabilized"}, {"measurement": "Mean serum creatinine", "setting": "[2]; Group 1 patients, day 100 after start of calcitriol therapy", "value": 2.54, "unit": "mg/dL"}, {"measurement": "Mean serum creatinine", "setting": "[2]; Group 1 patients, day 200 after start of calcitriol therapy", "value": 2.44, "unit": "mg/dL"}, {"measurement": "Mean serum creatinine", "setting": "[2]; Group 1 patients, day 300 after start of calcitriol therapy", "value": 2.50, "unit": "mg/dL"}, {"measurement": "Mean serum creatinine", "setting": "[2]; Group 1 patients, day 400 after start of calcitriol therapy", "value": 2.27, "unit": "mg/dL"}, {"measurement": "Mean serum creatinine", "setting": "[2]; Group 1 patients, day 500 after start of calcitriol therapy", "value": 2.37, "unit": "mg/dL"}, {"measurement": "Creatinine trend (slope) after 300 days of therapy", "setting": "[2]; Group 1 patients, repeated measures analysis of slopes", "value": "creatinine was decreasing evidenced by a negative slope"}, {"measurement": "Difference (change in slope of serum creatinine over time)", "setting": "[2]; Group 1 patients, treatment day +100, negative = decreasing slope, improved renal function", "value": "−0.0050"}, {"measurement": "Difference (change in slope of serum creatinine over time)", "setting": "[2]; Group 1 patients, treatment day +200", "value": "−0.0046"}, {"measurement": "Difference (change in slope of serum creatinine over time)", "setting": "[2]; Group 1 patients, treatment day +300", "value": "−0.0080"}, {"measurement": "Difference (change in slope of serum creatinine over time)", "setting": "[2]; Group 1 patients, treatment day +400", "value": "−0.0085"}, {"measurement": "Difference (change in slope of serum creatinine over time)", "setting": "[2]; Group 1 patients, treatment day +500", "value": "−0.0078"}, {"measurement": "Graft failures", "setting": "[2]; Group 2 (22 patients)", "value": "two"}, {"measurement": "Analysis of interval slopes of serum creatinine", "setting": "[2]; Group 2 patients", "value": "no interview slopes significantly different from 0"}, {"measurement": "Mean serum creatinine", "setting": "[2]; Group 2 patients (table title prints Group 1), day 100 of calcitriol", "value": 1.61, "unit": "mg/dL"}, {"measurement": "Mean serum creatinine", "setting": "[2]; Group 2 patients (table title prints Group 1), day 200 of calcitriol", "value": 1.79, "unit": "mg/dL"}, {"measurement": "Mean serum creatinine", "setting": "[2]; Group 2 patients (table title prints Group 1), day 300 of calcitriol", "value": 1.70, "unit": "mg/dL"}, {"measurement": "Mean serum creatinine", "setting": "[2]; Group 2 patients (table title prints Group 1), day 400 of calcitriol", "value": 1.62, "unit": "mg/dL"}, {"measurement": "Mean serum creatinine", "setting": "[2]; Group 2 patients (table title prints Group 1), day 500 of calcitriol", "value": 1.82, "unit": "mg/dL"}, {"measurement": "Mean serum creatinine levels over time", "setting": "[2]; Group 2 patients, first 600 days following initiation of calcitriol", "value": "remained stable"}, {"measurement": "Increase in MMP 2 mRNA levels", "setting": "MMP 2 mRNA; allogeneic grafts (FIG. 5A)", "value": 5.6, "unit": "fold"}, {"measurement": "Increase in MMP 2 mRNA levels", "setting": "MMP 2 mRNA; syngeneic grafts (FIG. 5A)", "value": 4.0, "unit": "fold"}]}
